In this assay the target is T1, AAK1 (Homo sapiens, UniProt Q2M2I8).
T1 construct: HA; expressed in transfected cells; host or cells: HEK293F
T1 sequence (Q2M2I8 1-863 isoform Q2M2I8-2): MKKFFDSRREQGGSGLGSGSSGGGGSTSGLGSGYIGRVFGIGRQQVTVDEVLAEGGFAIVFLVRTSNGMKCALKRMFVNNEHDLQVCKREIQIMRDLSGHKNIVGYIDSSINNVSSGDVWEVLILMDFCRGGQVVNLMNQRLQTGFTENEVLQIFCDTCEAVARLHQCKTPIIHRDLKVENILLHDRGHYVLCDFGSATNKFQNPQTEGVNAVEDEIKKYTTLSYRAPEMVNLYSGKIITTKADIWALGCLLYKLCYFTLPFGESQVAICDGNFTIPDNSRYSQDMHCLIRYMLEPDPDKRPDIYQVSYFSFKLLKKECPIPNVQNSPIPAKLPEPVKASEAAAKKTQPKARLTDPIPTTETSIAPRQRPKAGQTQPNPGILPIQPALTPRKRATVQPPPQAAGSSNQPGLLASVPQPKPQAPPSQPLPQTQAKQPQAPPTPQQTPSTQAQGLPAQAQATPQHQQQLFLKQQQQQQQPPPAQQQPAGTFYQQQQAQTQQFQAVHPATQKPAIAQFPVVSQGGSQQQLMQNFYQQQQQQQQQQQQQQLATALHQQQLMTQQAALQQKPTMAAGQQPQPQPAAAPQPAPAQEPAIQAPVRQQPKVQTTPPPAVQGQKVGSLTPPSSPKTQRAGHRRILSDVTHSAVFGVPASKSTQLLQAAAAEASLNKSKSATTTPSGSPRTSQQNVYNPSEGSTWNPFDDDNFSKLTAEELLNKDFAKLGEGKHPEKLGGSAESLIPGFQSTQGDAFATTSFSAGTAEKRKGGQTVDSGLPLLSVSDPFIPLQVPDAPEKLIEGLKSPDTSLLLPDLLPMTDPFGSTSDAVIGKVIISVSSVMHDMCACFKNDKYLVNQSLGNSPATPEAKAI
In words: HEK281 cell-based assay (phospho-mu2 Western blot in transfected HEK293F cells). Particulars: 3 hours incubation, read-out: CBA IC50. A digest of the protocol:
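After 3 hours at 37° C. with compound (five 3-fold-spaced concentrations, DMEM+0.5% FBS), transiently transfected HEK293F cells expressing full-length human AAK1 and Flag-tagged mu2 were lysed. mu2 phosphorylation was read by anti-phospho-mu2 immunoblot, normalized against total mu2 by anti-Flag blot.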
For orientation: In western blotting, separated proteins are transferred to a membrane and probed.
As usually defined, the IC50 is the midpoint of a concentration-inhibition curve. `CCCCNc1ccc2ncc(-c3ccc(C(=O)NCCN)cc3)n2n1` [N-(2-aminoethyl)-4-(6-(butylamino)imidazo[1,2-b]pyridazin-3-yl)benzamide]: the IC50 is at most 1000 nM.
`CCCCNc1ccc2ncc(-c3ccc(C(=O)NCC(C)N)cc3)n2n1` (stereo not drawn) [N-(2-aminopropyl)-4-(6-(butylamino)imidazo[1,2-b]pyridazin-3-yl)benzamide]: the IC50 was at most 1000 nM.
The result for `CCOc1ccccc1CCNc1ccc2ncc(-c3ccncc3OC)n2n1` [N-(2-ethoxyphenethyl)-3-(3-methoxypyridin-4-yl)imidazo[1,2-b]pyridazin-6-amine] reads at most 100 nM; that for `COc1ccccc1-c1cnc2ccc(NCCOCC(C)C)nn12` [N-(2-isobutoxyethyl)-3-(2-methoxyphenyl)imidazo[1,2-b]pyridazin-6-amine], at most 1000 nM; that for `COc1cnccc1-c1cnc2ccc(NCCOCC(C)C)nn12` [N-(2-isobutoxyethyl)-3-(3-methoxypyridin-4-yl)imidazo[1,2-b]pyridazin-6-amine], at most 100 nM.
For `CC(C)COCCNc1ccc2ncc(-c3ccncc3)n2n1` [N-(2-isobutoxyethyl)-3-(pyridin-4-yl)imidazo[1,2-b]pyridazin-6-amine], the concentration for half-maximal inhibition (IC50) is at most 1000 nM.
Take `CC(C)OCCNc1ccc2ncc(-c3cc[nH]n3)n2n1` [N-(2-isopropoxyethyl)-3-(1H-pyrazol-3-yl)imidazo[1,2-b]pyridazin-6-amine]: the half-maximal inhibitory concentration (IC50) is at most 1000 nM.
The value for `COc1cnccc1-c1cnc2ccc(NCCOC(C)C)nn12` [N-(2-isopropoxyethyl)-3-(3-methoxypyridin-4-yl)imidazo[1,2-b]pyridazin-6-amine] was at most 10 nM.
The result for `CC(C)OCCNc1ccc2ncc(-c3ccc(C4CCCN4)cc3)n2n1` (stereo not drawn) [N-(2-isopropoxyethyl)-3-(4-(pyrrolidin-2-yl)phenyl)imidazo[1,2-b]pyridazin-6-amine] reads at most 100 nM; that for `CC(C)OCCNc1ccc2ncc(-c3ccns3)n2n1` [N-(2-isopropoxyethyl)-3-(isothiazol-5-yl)imidazo[1,2-b]pyridazin-6-amine], at most 100 nM.
The result for `CC(C)OCCNc1ccc2ncc(-c3cscn3)n2n1` [N-(2-isopropoxyethyl)-3-(thiazol-4-yl)imidazo[1,2-b]pyridazin-6-amine] reads at most 1000 nM; that for `CNCCOCc1ccc(-c2cnc3ccc(NCCC(C)(C)C)nn23)cc1` [N-(3,3-dimethylbutyl)-3-(4-((2-(methylamino)ethoxy)methyl)phenyl)imidazo[1,2-b]pyridazin-6-amine], at most 100 nM; that for `CC(C)(C)CCNc1ccc2ncc(-c3ccc(C4CCCN4)cc3)n2n1` (stereo not drawn) [N-(3,3-dimethylbutyl)-3-(4-(pyrrolidin-2-yl)phenyl)imidazo[1,2-b]pyridazin-6-amine], at most 1000 nM.
`CN(CCCNc1ccc2ncc(-c3ccc(CN)cc3)n2n1)C(=O)C(C)(C)C` [N-(3-((3-(4-(aminomethyl)phenyl)imidazo[1,2-b]pyridazin-6-yl)amino)propyl)-N-methylpivalamide]: the IC50 is at most 1000 nM.
`COc1cnccc1-c1cnc2ccc(NCCCOC(C)(C)C)nn12` [N-(3-(tert-butoxy)propyl)-3-(3-methoxypyridin-4-yl)imidazo[1,2-b]pyridazin-6-amine]: the IC50 was at most 1000 nM.
The result for `CCCCNc1ccc2ncc(-c3ccc(C(=O)NCCCN)cc3)n2n1` [N-(3-aminopropyl)-4-(6-(butylamino)imidazo[1,2-b]pyridazin-3-yl)benzamide] reads at most 1000 nM; that for `FCCCNc1ccc2ncc(-c3ccc(C4CCCN4)cc3)n2n1` (stereo not drawn) [N-(3-fluoropropyl)-3-(4-(pyrrolidin-2-yl)phenyl)imidazo[1,2-b]pyridazin-6-amine], at most 100 nM.
In the case of `c1ccc(CCCNc2ccc3ncc(-c4ccc(C5CCCN5)cc4)n3n2)cc1` (stereo not drawn) [N-(3-phenylpropyl)-3-(4-(pyrrolidin-2-yl)phenyl)imidazo[1,2-b]pyridazin-6-amine], the IC50 was at most 1000 nM.
Consider `CCCCNc1ccc2ncc(C(=O)Nc3ccc(OCCN)cc3)n2n1` [N-(4-(2-aminoethoxy)phenyl)-6-(butylamino)imidazo[1,2-b]pyridazine-3-carboxamide], for which the IC50 is at most 1000 nM.
`CCCCNc1ccc2ncc(C(=O)Nc3ccc(CN)cc3)n2n1` [N-(4-(aminomethyl)phenyl)-6-(butylamino)imidazo[1,2-b]pyridazine-3-carboxamide]: the IC50 was at most 1000 nM.
Turning to `CCCCNc1ccc2ncc(-c3ccc(C(=O)N[C@@H]4CCCC[C@@H]4N)cc3)n2n1` [N-((1R,2S)-2-aminocyclohexyl)-4-(6-(butylamino)imidazo[1,2-b]pyridazin-3-yl)benzamide], the IC50 is at most 100 nM.
The result for `COc1cnccc1-c1cnc2ccc(NCC3CCCC3)nn12` [N-(cyclopentylmethyl)-3-(3-methoxypyridin-4-yl)imidazo[1,2-b]pyridazin-6-amine] reads at most 100 nM; that for `CCCCNc1ccc2ncc(-c3cc[nH]n3)n2n1` [N-butyl-3-(1H-pyrazol-3-yl)imidazo[1,2-b]pyridazin-6-amine], at most 100 nM; that for `CCCCNc1ccc2ncc(-c3sc(C)nc3C)n2n1` [N-butyl-3-(2,4-dimethylthiazol-5-yl)imidazo[1,2-b]pyridazin-6-amine], at most 100 nM.
In the case of `CCCCNc1ccc2ncc(-c3ccncc3OC)n2n1` [N-butyl-3-(3-methoxypyridin-4-yl)imidazo[1,2-b]pyridazin-6-amine], the IC50 was at most 100 nM.
`CCCCNc1ccc2ncc(-c3ccc(CNCCOC)cc3)n2n1` [N-butyl-3-(4-(((2-methoxyethyl)amino)methyl)phenyl)imidazo[1,2-b]pyridazin-6-amine]: the half-inhibitory concentration (IC50) was at most 1000 nM.
Consider `CCCCNc1ccc2ncc(-c3ccc(CNCC4CCCO4)cc3)n2n1` (stereo not drawn) [N-butyl-3-(4-((((tetrahydrofuran-2-yl)methyl)amino)methyl)phenyl)imidazo[1,2-b]pyridazin-6-amine], for which the IC50 is at most 1000 nM.
In the case of `CCCCNc1ccc2ncc(-c3ccc(CNCC4CC4)cc3)n2n1` [N-butyl-3-(4-(((cyclopropylmethyl)amino)methyl)phenyl)imidazo[1,2-b]pyridazin-6-amine], the IC50 is at most 1000 nM.
The value for `CCCCNc1ccc2ncc(-c3ccc(CNC(C)C)cc3)n2n1` [N-butyl-3-(4-((isopropylamino)methyl)phenyl)imidazo[1,2-b]pyridazin-6-amine] was at most 1000 nM; that for `CCCCNc1ccc2ncc(-c3ccc(CNCCC)cc3)n2n1` [N-butyl-3-(4-((propylamino)methyl)phenyl)imidazo[1,2-b]pyridazin-6-amine] was at most 1000 nM.
Regarding `CCCCNc1ccc2ncc(-c3ccc(CNC(C)(C)C)cc3F)n2n1` [N-butyl-3-(4-((tert-butylamino)methyl)-2-fluorophenyl)imidazo[1,2-b]pyridazin-6-amine], the IC50 was at most 1000 nM.
Take `CCCCNc1ccc2ncc(-c3ccc(CNC(C)(C)C)c(F)c3)n2n1` [N-butyl-3-(4-((tert-butylamino)methyl)-3-fluorophenyl)imidazo[1,2-b]pyridazin-6-amine]: the IC50 is at most 100 nM.
As for `CCCCNc1ccc2ncc(-c3ccc(C4CCCN4)cc3)n2n1` (stereo not drawn) [N-butyl-3-(4-(pyrrolidin-2-yl)phenyl)imidazo[1,2-b]pyridazin-6-amine], the IC50 is at most 1000 nM.
The value for `CCCCNc1ccc2ncc(-c3ccc4c(c3)CNC4)n2n1` [N-butyl-3-(isoindolin-5-yl)imidazo[1,2-b]pyridazin-6-amine] was at most 1000 nM; that for `COc1cnccc1-c1cnc2ccc(NCCC(C)C)nn12` [N-isopentyl-3-(3-methoxypyridin-4-yl)imidazo[1,2-b]pyridazin-6-amine] was at most 100 nM; that for `CNC(=O)c1ccc(-c2cnc3ccc(NCCc4ccccc4OC(F)(F)F)nn23)cc1` [N-methyl-4-(6-((2-(trifluoromethoxy)phenethyl)amino)imidazo[1,2-b]pyridazin-3-yl)benzamide] was at most 10 nM.
The value for `CCCCCNc1ccc2ncc(-c3ccc(C4CCCN4)cc3)n2n1` (stereo not drawn) [Pentyl-[3-(4-pyrrolidin-2-yl-phenyl)-imidazo[1,2-b]pyridazin-6-yl]-amine] was at most 1000 nM; that for `CCCCNc1nn2c(-c3ccc(CN)cc3)cnc2cc1C` [[3-(4-Aminomethyl-phenyl)-7-methyl-imidazo[1,2-b]pyridazin-6-yl]-butyl-amine] was at most 100 nM; that for `NCc1ccc(-c2cnc3ccc(NCCCc4ccccc4)nn23)cc1` [[3-(4-Aminomethyl-phenyl)-imidazo[1,2-b]pyridazin-6-yl]-(3-phenyl-propyl)-amine] was at most 100 nM.
Take `NCc1ccc(-c2cnc3ccc(NC4CCCCC4)nn23)cc1` [[3-(4-Aminomethyl-phenyl)-imidazo[1,2-b]pyridazin-6-yl]-cyclohexylamine]: the half-maximal inhibitory concentration (IC50) is at most 1000 nM.
The result for `CC(C)N(CCNc1ccc2ncc(-c3ccc(C(N)=O)cc3)n2n1)C(=O)OC1CCCC1` [cyclopentyl (2-((3-(4-carbamoylphenyl)imidazo[1,2-b]pyridazin-6-yl)amino)ethyl)(isopropyl)carbamate] reads at most 100 nM.
The value for `CCOC(=O)CCCNc1ccc2ncc(-c3ccc(CN)cc3)n2n1` [ethyl 4-((3-(4-(aminomethyl)phenyl)imidazo[1,2-b]pyridazin-6-yl)amino)butanoate] was at most 100 nM; that for `CCOC(=O)N(C)CCNc1ccc2ncc(-c3ccncc3OC)n2n1` [ethyl (2-((3-(3-methoxypyridin-4-yl)imidazo[1,2-b]pyridazin-6-yl)amino)ethyl)(methyl)carbamate] was at most 10 nM; that for `CCOC(=O)N(C)CCNc1ccc2ncc(-c3ccc(C(=O)NCCC(C)C)cc3)n2n1` [ethyl (2-((3-(4-(isopentylcarbamoyl)phenyl)imidazo[1,2-b]pyridazin-6-yl)amino)ethyl)(methyl)carbamate] was at most 100 nM.
The value for `CCOC(=O)N(C)CCNc1ccc2ncc(-c3ccc(C(=O)NC(C)(C)C)cc3)n2n1` [ethyl (2-((3-(4-(tert-butylcarbamoyl)phenyl)imidazo[1,2-b]pyridazin-6-yl)amino)ethyl)(methyl)carbamate] was at most 100 nM.

The values are drawn from patent US8969565B2, “Imidazo[1,2-b]pyridazine-based compounds, compositions comprising them, and methods of their use” (Lexicon Pharmaceuticals, Inc., priority 2012, dated 2015).
